Where a name gives a salt, the structure may show the parent alone.
What follows are compounds tested against PDE10A (assay: Phosphodiesterase assay (TR-FRET, LANCE cAMP kit)). Conditions: PDE10A (BPS Bioscience) 200 pg/well, biotin-cAMP substrate, 60 min at room temperature.
Format: biochemical
Method: (§1) The PDE assay is based on the homogenous time-resolved fluorescence resonance energy transfer (TR-FRET) technology (LANCE® from Perkin Elmer). […] When there is PDE activity, resulting in the degradation of the cyclic nucleotide, the complex is not formed and a decrease in signal is observed.
(§2) The phosphodiesterase assay was developed using the LANCE® cAMP kit (PerkinElmer). The assay buffer contained HBSS with 5 mM HEPES, 0.1% BSA, and 1.5 mM MgCl2, pH 7.4. PDE10A (BPS Bioscience) was used at 200 pg/well (with a specific activity of 3200 pmole/min/μg with assay conditions: 10 mM Tris-HCl, pH7.4, 10 mM MgCl2, 1 mM MnCl2, 200 μM cAMP, 2.5 kU 5′ nucleotidase, 37° C., 20 min). […] Chemical compounds were dissolved in DMSO (final concentration 2% (v/v)).
(§3) In a 384-well plate, 2 μL inhibitor and 3 μL PDE were added to the well, followed by the addition of 5 μl substrate biotinylated cAMP (1:5). After 60 min incubation at room temperature, 10 μL of assay detection mixture was added to the assay plate. After 1 h at room temperature, the signal was measured on EnVision™ (Perkin Elmer).

SMILES	IC50 [nM]
CCc1nc(O)c(Cc2ccc3oc4ccccc4c3c2)c2cc(OC)c(OC)cc12 [Compound 6, 4-(Dibenzo[b,d]furan-2-ylmethyl)-1-ethyl-6,7-dimethoxyisoquinolin-3-ol hydrochloride]	0.12

What follows are compounds tested against PDE10A (Homo sapiens, UniProt Q9Y233) (assay: Phosphodiesterase assay (TR-FRET, LANCE cAMP kit)). Conditions: PDE10A (BPS Bioscience) 200 pg/well, biotin-cAMP substrate, 60 min at room temperature.
Sequence of PDE10A (Homo sapiens, UniProt Q9Y233) (Q9Y233 whole entry, looked up): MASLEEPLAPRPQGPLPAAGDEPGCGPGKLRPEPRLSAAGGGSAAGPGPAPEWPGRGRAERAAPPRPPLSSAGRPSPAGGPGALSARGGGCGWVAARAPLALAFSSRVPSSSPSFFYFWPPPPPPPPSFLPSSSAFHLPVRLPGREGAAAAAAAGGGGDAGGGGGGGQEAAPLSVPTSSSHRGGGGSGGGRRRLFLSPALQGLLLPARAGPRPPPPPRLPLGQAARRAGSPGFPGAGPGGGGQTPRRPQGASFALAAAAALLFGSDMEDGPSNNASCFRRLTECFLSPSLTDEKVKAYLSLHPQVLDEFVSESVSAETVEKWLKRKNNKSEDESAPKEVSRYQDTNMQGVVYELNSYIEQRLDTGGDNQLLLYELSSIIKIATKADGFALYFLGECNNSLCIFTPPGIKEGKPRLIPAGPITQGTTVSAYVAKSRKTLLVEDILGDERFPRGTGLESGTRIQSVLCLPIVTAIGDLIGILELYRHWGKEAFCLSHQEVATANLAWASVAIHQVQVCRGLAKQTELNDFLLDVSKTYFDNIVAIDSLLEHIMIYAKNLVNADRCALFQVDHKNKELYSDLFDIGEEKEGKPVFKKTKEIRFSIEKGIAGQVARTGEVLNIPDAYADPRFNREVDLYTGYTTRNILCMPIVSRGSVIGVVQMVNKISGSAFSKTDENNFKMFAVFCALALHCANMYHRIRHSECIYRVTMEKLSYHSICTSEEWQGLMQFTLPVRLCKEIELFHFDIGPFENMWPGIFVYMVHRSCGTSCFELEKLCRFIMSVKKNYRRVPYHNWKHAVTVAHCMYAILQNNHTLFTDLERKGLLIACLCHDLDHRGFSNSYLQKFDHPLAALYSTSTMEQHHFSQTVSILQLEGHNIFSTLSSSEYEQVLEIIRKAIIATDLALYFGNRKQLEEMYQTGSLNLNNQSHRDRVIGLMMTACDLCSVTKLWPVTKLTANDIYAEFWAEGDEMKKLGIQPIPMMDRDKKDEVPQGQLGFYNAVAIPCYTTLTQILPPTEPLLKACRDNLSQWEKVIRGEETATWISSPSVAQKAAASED
Format: biochemical
Method: as §1, §2, §3

SMILES	IC50 [nM]
CCc1nc(O)c(Cc2cc3cc(OC)ccc3nc2NCC(F)(F)F)c2cc(OC)c(OC)cc12 [Compound 45, 1-ethyl-6,7-dimethoxy-4-((6-methoxy-2-(2,2,2-trifluoroethylamino)quinolin-3-yl)methyl)isoquinolin-3-ol dihydrochloride]	30
CCCc1nc(O)c(Cc2cc3cc(OCC)ccc3nc2NCC)c2cc(OC)c(OC)cc12 [Compound 49, 4-((6-ethoxy-2-(ethylamino)quinolin-3-yl)methyl)-6,7-dimethoxy-1-propylisoquinolin-3-ol dihydrochloride]	4.6
CCCc1nc(O)c(Cc2cc3cc(C)ccc3nc2NCC)c2cc(OC)c(OC)cc12 [Compound 35, 4-((2-(Ethylamino)-6-methylquinolin-3-yl)methyl)-6,7-dimethoxy-1-propylisoquinolin-3-ol dihydrochloride]	1.5
CCCc1nc(O)c(Cc2cc3cc(OCC)c(F)cc3nc2NCC)c2cc(OC)c(OC)cc12 [Compound 86, 4-((6-Ethoxy-2-(ethylamino)-7-fluoroquinolin-3-yl)methyl)-6,7-dimethoxy-1-propylisoquinolin-3-ol dihydrochloride]	0.3
CCCc1nc(O)c(Cc2cc3cc(OC)ccc3nc2NCC)c2cc(OC)c(OC)cc12 [Compound 50, 4-((2-(ethylamino)-6-methoxyquinolin-3-yl)methyl)-6,7-dimethoxy-1-propylisoquinolin-3-ol dihydrochloride]	0.28

More lines, now with the values ahead:

IC50 [nM]	SMILES
265	COc1cc2c(C)nc(O)c(Cc3ccnc4ccccc34)c2cc1OC [Compound 25, 6,7-Dimethoxy-1-methyl-4-(quinolin-4-ylmethyl)isoquinolin-3-ol dihydrochloride]
223	COc1cc2c(C)nc(O)c(Cc3ccncc3)c2cc1OC [Compound 11, 6,7-dimethoxy-1-methyl-4-(pyridin-4-ylmethyl)isoquinolin-3-ol hydrochloride]
3.5	CCc1nc(O)c(Cc2cc3cc(OC)ccc3nc2NC(C)C)c2cc(OC)c(OC)cc12 [Compound 43, 1-Ethyl-4-((2-(isopropylamino)-6-methoxyquinolin-3-yl)methyl)-6,7-dimethoxyisoquinolin-3-ol dihydrochloride]
29	COc1ccc2cc(Cc3c(O)nc(C)c4cc(OC)c(OC)cc34)cnc2c1 [Compound 29, 6,7-Dimethoxy-4-((7-methoxyquinolin-3-yl)methyl)-1-methylisoquinolin-3-ol dihydrochloride]
55	COc1ccc2nc(NCC(F)(F)F)c(Cc3c(O)nc(C(C)C)c4cc(OC)c(OC)cc34)cc2c1 [Compound 51, 1-isopropyl-6,7-dimethoxy-4-((6-methoxy-2-(2,2,2-trifluoroethylamino)quinolin-3-yl)methyl)isoquinolin-3-ol dihydrochloride]
698	CCCc1nc(O)c(Cc2cc3cc(C)ccc3nc2N(C)C)c2cc(OC)c(OC)cc12 [Compound 36, 4-((2-(Dimethylamino)-6-methylquinolin-3-yl)methyl)-6,7-dimethoxy-1-propylisoquinolin-3-ol dihydrochloride]
13	CCc1nc(O)c(Cc2cnc3cc(OC)ccc3c2)c2cc(OC)c(OC)cc12 [Compound 31, 1-ethyl-6,7-dimethoxy-4-((7-methoxyquinolin-3-yl)methyl)isoquinolin-3-ol dihydrochloride]
21	CCOc1ccc2cc(Cc3c(O)nc(C)c4cc(OC)c(OC)cc34)cnc2c1 [Compound 30, 4-((7-ethoxyquinolin-3-yl)methyl)-6,7-dimethoxy-1-methylisoquinolin-3-ol dihydrochloride]
1.8	CCCc1nc(O)c(Cc2cc3cc(OCC)ccc3nc2NCCNC(C)=O)c2cc(OC)c(OC)cc12 [Compound 88, N-(2-((6-ethoxy-3-((3-hydroxy-6,7-dimethoxy-1-propylisoquinolin-4-yl)methyl)quinolin-2-yl)amino)ethyl)acetamide dihydrochloride]

What follows are compounds tested against PDE4D3 (Homo sapiens (Human), UniProt Q08499) (assay: PDE4D3 inhibition (selectivity testing)). Conditions: not given.
Sequence of PDE4D3 (Q08499 other isoform, or with tags, fused parts or gaps): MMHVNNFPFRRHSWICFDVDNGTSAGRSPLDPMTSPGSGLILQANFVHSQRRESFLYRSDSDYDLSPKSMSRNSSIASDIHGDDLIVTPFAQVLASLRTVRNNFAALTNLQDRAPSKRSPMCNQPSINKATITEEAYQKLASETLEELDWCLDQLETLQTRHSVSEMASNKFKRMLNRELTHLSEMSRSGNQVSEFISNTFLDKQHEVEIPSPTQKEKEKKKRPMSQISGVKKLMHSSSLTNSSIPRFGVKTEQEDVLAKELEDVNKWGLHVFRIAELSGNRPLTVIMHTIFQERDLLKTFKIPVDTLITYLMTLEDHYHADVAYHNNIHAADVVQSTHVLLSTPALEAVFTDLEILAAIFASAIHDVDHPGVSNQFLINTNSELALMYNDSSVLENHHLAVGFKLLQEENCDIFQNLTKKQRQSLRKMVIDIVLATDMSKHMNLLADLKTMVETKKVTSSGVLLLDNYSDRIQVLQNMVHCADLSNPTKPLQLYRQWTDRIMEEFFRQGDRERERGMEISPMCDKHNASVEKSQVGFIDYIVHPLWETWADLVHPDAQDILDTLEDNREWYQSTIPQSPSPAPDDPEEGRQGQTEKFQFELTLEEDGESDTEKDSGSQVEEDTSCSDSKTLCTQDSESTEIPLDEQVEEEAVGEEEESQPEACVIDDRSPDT
Format: biochemical
Description: The compounds have also been tested for their activities on PDEs1-9 and PDE11.

SMILES	IC50 [nM]
CCc1nc(O)c(Cc2ccc3oc4ccccc4c3c2)c2cc(OC)c(OC)cc12 [Compound 6, 4-(Dibenzo[b,d]furan-2-ylmethyl)-1-ethyl-6,7-dimethoxyisoquinolin-3-ol hydrochloride]	0.9
COc1ccc2nc(NCC(F)(F)F)c(Cc3c(O)nc(C(C)C)c4cc(OC)c(OC)cc34)cc2c1 [Compound 51, 1-isopropyl-6,7-dimethoxy-4-((6-methoxy-2-(2,2,2-trifluoroethylamino)quinolin-3-yl)methyl)isoquinolin-3-ol dihydrochloride]	280
CCc1nc(O)c(Cc2cnc3cc(OC)ccc3c2)c2cc(OC)c(OC)cc12 [Compound 31, 1-ethyl-6,7-dimethoxy-4-((7-methoxyquinolin-3-yl)methyl)isoquinolin-3-ol dihydrochloride]	82

— patent US8772316B2, “Substituted 6,7-dialkoxy-3-isoquinolinol derivatives as inhibitors of phosphodiesterase 10 (PDE10A)” (Allergan, Inc., priority 2011, dated 2014)
